Here are results for one molecule from patent US20230030886A1, “CHEMOTHERAPEUTIC DRUG IMPLANT” (EXTRUDED PHARMACEUTICALS LTD, priority 2019, published 2023).

Broadly, the IC50 is the concentration needed to halve the response being measured. Read a high IC50 as weaker potency.

The structures appear in SMILES notation.

This assay relates to primary GBM cells taken from eight patients with recurrent GBM. Nature of the assay: GBM cell cytotoxicity of IRN, TMZ and IRN+PVT, increasing concentrations, 5 days (MTT). The assay is classed as cell-based, human. As for the experimental part: TMZ, IRN and IRN+PVT were added at increasing concentrations up to 5 log nm to cultured primary GBM cells taken from eight patients with recurrent GBM. After 5 days of exposure an MTT assay was performed to assess % cell viability.

Molecule `CCc1c2c(nc3ccc(OC(=O)N4CCC(N5CCCCC5)CC4)cc13)-c1cc3c(c(=O)n1C2)COC(=O)[C@]3(O)CC` [IRN, irinotecan] had an IC50 (Homo sapiens, 120 h, determined from FIG. 23, 5 days exposure, eight patient lines) of 3.16 µM. Besides, where the note is “up to 5 log nm, 5 days of exposure”, the “response of the eight patient cell lines to treatment” value is given as “Six of the eight patient cell lines responded”.
